Laboratory results taken from patent US8293253B2, “Compositions for controlled delivery of pharmaceutically active compounds” (IDEXX Laboratories, Inc., priority 2004, dated 2012).

Assay: Dissolution of AMP alone in organic solvent
Type: physicochemical
From the text: (§1) […] […] 1 eq. of a phosphorylated nucleotide such as adefovir can be substituted for each eq. of AMP.
as §1

Dissolution of AMP alone in N-methyl pyrrolidone (0.5 g in 10 mL of N-methyl pyrrolidone, absence of tyrosine butyrate): will not dissolve
Dissolution of AMP alone in glycerol formal (1 g in 10 mL of glycerol formal, absence of isoleucine butyrate): will not dissolve
Structure (SMILES): Nc1ncnc2c1ncn2[C@@H]1O[C@H](COP(=O)(O)O)[C@@H](O)[C@H]1O [AMP, Adenosine monophosphate]
